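Interpolation was linear, between the two tested concentrations surrounding the appropriate level; five concentrations were tested over 48 hours in 96-well plates. GI50: concentration for 50% inhibition of growth.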 Activity calls are given as the source filed them. Rule as the data show it: active = GI50 up to about 1.1 µM and inactive = higher.
How the values were obtained:
Assay in all cases: NCI anticancer screen, dose series, 48 h
[1] = tested on: DLD-1
[2] = tested on: DMS-114
[3] = tested on: DMS-273
[4] = tested on: LXFL 529
[5] = tested on: M19-MEL
[6] = tested on: XF498
[7] = tested on: SNB-78
[8] = tested on: HOP-18
[9] = tested on: RXF 631

Row | Structure (SMILES) | GI50 [1] | GI50 [2] | GI50 [3] | GI50 [4] | GI50 [5] | GI50 [6] | GI50 [7] | GI50 [8] | GI50 [9]
1 | CC(=O)NC(CCCNC(=O)OCc1ccccc1)C(=O)NCc1ccccc1 (stereo not drawn) | > 100 µM (inactive) | > 100 µM (inactive) | > 100 µM (inactive) | > 100 µM (inactive) | > 100 µM (inactive) | > 100 µM (inactive) |  |  | 
2 | CNC(=O)N(CCCC(NC(C)=O)C(=O)NCc1ccccc1)Cc1ccccc1 (stereo not drawn) | > 100 µM (inactive) | > 100 µM (inactive) | > 100 µM (inactive) | > 100 µM (inactive) | > 100 µM (inactive) | > 100 µM (inactive) | > 100 µM (inactive) |  | 
3 | C=C1CC2C(=O)N(c3ccccc3)C(=O)C2CC1n1[nH]c(=O)n(Cc2ccccc2)c1=O (stereo not drawn) | > 100 µM (inactive) |  | > 100 µM (inactive) | > 100 µM (inactive) | > 100 µM (inactive) | > 100 µM (inactive) | > 100 µM (inactive) | > 100 µM (inactive) | 
4 | CC1(C)CCC(=O)c2c(O)ccc(O)c21 |  |  | > 100 µM (inactive) | 42.8 µM (inactive) | > 100 µM (inactive) |  | > 100 µM (inactive) |  | 
5 | COc1cc(CC2C(=O)OCC2[C@@H](OC(C)=O)c2ccc3c(c2)OCO3)c(Br)c(OC)c1OC (stereo partly drawn) | > 100 µM (inactive) | 28 µM (inactive) | 30.7 µM (inactive) | 33.9 µM (inactive) | 37.8 µM (inactive) | 62.8 µM (inactive) |  | > 100 µM (inactive) | 
6 | O=c1[nH]c2ccccc2nc1CBr | 8.87 µM (inactive) |  | 1.61 µM (inactive) | 1.12 µM (active) | 10.2 µM (inactive) | 1.9 µM (inactive) | 16.1 µM (inactive) | 6.93 µM (inactive) | 
7 | O=C1OCCC1C(O)C1c2ccccc2-c2ccccc21 (stereo not drawn) | > 100 µM (inactive) | > 100 µM (inactive) |  | > 100 µM (inactive) | > 100 µM (inactive) | 17.8 µM (inactive) | > 100 µM (inactive) |  | 
8 | O=C(NC(=O)c1ccccc1[N+](=O)[O-])Nc1ccc(Oc2ncc(Cl)cn2)c([N+](=O)[O-])c1 | 0.217 µM (active) | 0.0865 µM (active) | 0.0738 µM (active) | 0.217 µM (active) | 0.135 µM (active) | 0.818 µM (active) | 0.252 µM (active) | > 100 µM (inactive) | 0.286 µM (active)
9 | COc1ccc(S(=O)(=O)N/N=C(\C)CN2C(=O)c3ccccc3C2=O)cc1OC | > 100 µM (inactive) | > 100 µM (inactive) | > 100 µM (inactive) | > 100 µM (inactive) | > 100 µM (inactive) | > 100 µM (inactive) | > 100 µM (inactive) | > 100 µM (inactive) | 
10 | O=S(=O)(N/N=C\c1c2ccccc2[n+]([O-])c2ccccc12)c1ccc(Cl)cc1 | > 100 µM (inactive) | > 100 µM (inactive) | 93.3 µM (inactive) | > 100 µM (inactive) | > 100 µM (inactive) |  | > 100 µM (inactive) | 32.4 µM (inactive) | > 100 µM (inactive)
11 | CCCCCCc1cc2c(C)c(C)c(=O)oc2cc1OCCCOc1cc2oc(=O)c(C)c(C)c2cc1CCCCCC | > 100 µM (inactive) | > 100 µM (inactive) | > 100 µM (inactive) | > 100 µM (inactive) | > 100 µM (inactive) | > 100 µM (inactive) | > 100 µM (inactive) | > 100 µM (inactive) | 
12 | COc1ccccc1NC(=O)C(=O)C1C(=O)Nc2ccccc2[S+]1[O-] (stereo not drawn) | > 100 µM (inactive) | > 100 µM (inactive) | > 100 µM (inactive) | > 100 µM (inactive) | > 100 µM (inactive) | > 100 µM (inactive) | > 100 µM (inactive) | > 100 µM (inactive) | > 100 µM (inactive)
13 | N#CC1CCCCC1NC1(C#N)CCCCC1 (stereo not drawn) | > 100 µM (inactive) | > 100 µM (inactive) | > 100 µM (inactive) | > 100 µM (inactive) |  | > 100 µM (inactive) | > 100 µM (inactive) |  | 
14 | COC(=O)C(C(=O)C(=O)Nc1ccccc1C)c1nc2ccc([N+](=O)[O-])cc2nc1O (stereo not drawn) | > 100 µM (inactive) | > 100 µM (inactive) | > 100 µM (inactive) | > 100 µM (inactive) | > 100 µM (inactive) | > 100 µM (inactive) | > 100 µM (inactive) | > 100 µM (inactive) | 
15 | Cc1ccc(S(=O)(=O)C(C#N)c2nc3ccccc3nc2N2CCOCC2)cc1 (stereo not drawn) | 27.3 µM (inactive) | 22.5 µM (inactive) | 17.8 µM (inactive) | 27.9 µM (inactive) | 26.7 µM (inactive) | 24.3 µM (inactive) | 3.09 µM (inactive) |  | 
16 | N/N=C(\c1nc2ccc(Cl)cc2nc1O)C(O)c1ccc(Cl)c(Cl)c1 (stereo not drawn) | 46.7 µM (inactive) | > 100 µM (inactive) | 81.1 µM (inactive) | > 100 µM (inactive) | > 100 µM (inactive) | > 100 µM (inactive) | > 100 µM (inactive) |  | > 100 µM (inactive)
17 | O=Cc1c[nH]c2c(=O)[nH]cnc12 | > 100 µM (inactive) | > 100 µM (inactive) |  | > 100 µM (inactive) | > 100 µM (inactive) |  | > 100 µM (inactive) | > 100 µM (inactive) | 
18 | Cc1ccc2nc3c(C(=O)NCCN(C)C)cccc3nc2c1 |  | 2.74 µM (inactive) | 2.84 µM (inactive) | 7.38 µM (inactive) | 2.44 µM (inactive) |  | 7.31 µM (inactive) | > 27.1 µM (inactive) | 
19 | O=c1/c(=C/c2ccco2)sc2nc3ccccc3n12 | > 10 µM (inactive) | > 10 µM (inactive) | 86.5 µM (inactive) | > 10 µM (inactive) | > 10 µM (inactive) | > 10 µM (inactive) | > 10 µM (inactive) | > 100 µM (inactive) | > 10 µM (inactive)
20 | CC1(C)OC(C[C@]2(C#N)C[C@H](CCl)OC(C)(C)O2)C[C@@H](C[C@]2(C#N)C[C@H](CCl)OC(C)(C)O2)O1 (stereo partly drawn) | > 100 µM (inactive) |  | > 100 µM (inactive) | > 100 µM (inactive) | > 100 µM (inactive) | > 100 µM (inactive) | > 100 µM (inactive) | > 100 µM (inactive) | 
21 | COC(=O)CC[C@@H](NC(=O)C(C)NC(=O)COC1C(O)C(COC(=O)CCCCCCCCCCNC(=O)c2ccc([N+](=O)[O-])c3[nH]c4cc(Br)ccc4c(=O)c23)OC(OCc2ccccc2)C1NC(C)=O)C(N)=O (stereo partly drawn) | 35.4 µM (inactive) | 35.6 µM (inactive) | > 100 µM (inactive) | 26.2 µM (inactive) | 50.8 µM (inactive) | > 100 µM (inactive) | 71.8 µM (inactive) | 35.7 µM (inactive) | 
22 | CC#CC1/C(=C\C(=O)OC)CCCC1O (stereo not drawn) | > 100 µM (inactive) | > 100 µM (inactive) | > 100 µM (inactive) |  | > 100 µM (inactive) | > 100 µM (inactive) | > 100 µM (inactive) |  | 
23 | CC(=O)OC[C@@H](COC(=O)/C=C/c1ccc(O)cc1)OC1OC(CO)C(O)C(O)C1O (stereo partly drawn) | > 100 µM (inactive) |  |  | > 100 µM (inactive) | > 100 µM (inactive) | > 100 µM (inactive) | > 100 µM (inactive) | > 100 µM (inactive) | > 100 µM (inactive)
24 | c1ccc([S+](c2ccccc2)c2ccc(Sc3ccc([S+](c4ccccc4)c4ccccc4)cc3)cc2)cc1 | 29.2 µM (inactive) | 3.2 µM (inactive) | 19.5 µM (inactive) | 18 µM (inactive) | 18.1 µM (inactive) | 11.4 µM (inactive) | 27.9 µM (inactive) | 30.5 µM (inactive) | 58.2 µM (inactive)
25 | CSc1ccc2c(cc1=O)[C@@H](NC(=O)c1cc(O)c(O)c(O)c1)CCc1cc(O)c(O)c(O)c1-2 | 21.2 µM (inactive) |  | 20.5 µM (inactive) | 18.9 µM (inactive) | 14.6 µM (inactive) | 15.4 µM (inactive) | 31 µM (inactive) |  | 15.5 µM (inactive)
26 | Cc1[nH]c(=O)[nH]c(=O)c1N(CCF)CCCl [FLUORODOPAN] | 384 µM (inactive) | 193 µM (inactive) |  |  |  |  | 322 µM (inactive) |  | 
